From patent publication US20090029932A1, “Identification and use of miRNAs for differentiating myeloid leukemia cells” (Centre National De La Recherche Scientifique (CNRS), priority 2004, published 2009)

Tests used:
NB4-LR1 cell line = assay: Granulocytic differentiation, NBT reduction test, NB4-LR1 cells; assay type: cell-based, human; conditions: for percentage of cells differentiated during the treatment: 100 μM 8-CPT-cAMP where added, NBT positive cells
Procedure: (§1) The cells from cell line NB4 and cell line NB4-LR1, resistant at maturation only by ATRA, were grown as described in LANOTTE et al. (1991, previously cited) and in RUCHAUD et al. (Proc. Natl. Acad. Sci., vol. 91, p: 8428-8432, 1994). The cells were then treated for 4 days in the presence of 1 μM of all-trans retinoic acid (ATRA, SIGMA-ALRICH) alone or with the addition of 100 μM of an cAMP analogue (8-CPT-cAMP, SIGMA-ALRICH). The cell proliferation was determined on a daily basis by counting the cells using a cell counter (BECKMAN COULTER FRANCE SA) from day 0, following the addition of the therapeutic agent, to day 4.
(§2) In parallel, the evolution of the differentiation was determined on a daily basis throughout the treatment. The granulocytic differentiation was simultaneously evaluated according to the morphological and biochemical criteria. The morphological analysis was carried out after May-Grünwald colouring. The biochemical analysis was carried out by a coloration test based on the reduction of NBT (nitro blue tetrazolium) that is used to measure the oxidative ability of the mature cells to reduce the NBT colorant. For this purpose, 0.5 to 1×10^5 cells were centrifuged for 5 minutes at 190 g. The cell sediment was then recovered in 200 μl of saline phosphate buffer (PBS) with the addition of NBT (SIGMA ALDRICH, 1 mg/ml) and PMA (Phorbol 12-myristate 13-acetate, SIGMA, 10^−7M) and then was incubated for 20 minutes at 37° C. The cells were then collected on slides by Cytospin® centrifugation, then observed by phase contrast microscopy. A minimum of 200 cells per slide were examined under light microscope and a differentiation percentage was calculated on the basis of the number of positive NBT cells.

NB4-LR2 cell line = conditions: truncated PML-RARa; cited from earlier work
miRNAs in NB4 cells = assay: Northern blot of miRNA expression in NB4 cells; assay type: cell-based, human; conditions: 1 μM ATRA
Procedure: (§3) The total RNA was extracted from the cells of the NB4 cell lines treated or not treated with 1 μM of ATRA, at the same time intervals as in example 1, and using the Tri-Reagent® kit (SIGMA) according to the manufacturer's instructions. The analysis of the low molecular weight RNA by northern blot was carried out as described in LLAVE et al. (2002, previously cited). All of the northern blot experiments were carried out in double. DNA oligonucleotides complementary to the sequences of the miRNAs analysed were labelled at their end with ATP γ-P^32 using the polynucleotide kinase T4 (NEW ENGLAND BIOLABS) by following the manufacturer's instructions.
The quantity of RNA in each well was controlled by coloration of the gel with ethidium bromide and visualisation of the ribosomal RNA (rRNA) under UV light. […] In addition, the miRNAs that seem to belong to a same precursor effectively present a similar expression profile over time.
(§4) To formally establish the correlation between the expression of the different miRNAs identified and the differentiation in granulocytes, cells from NB4 and NB4-LR1 cell lines were cultivated in the presence or absence of ATRA as described in example 1. Northern blot experiments were carried out according to the protocol described in example 2. The different northern blot experiments were carried out with probes complementary to the miRNAs miR-23a, miR-17, miR-18, miR-19a, miR-19b, miR-20, miR-23 and miR-92.
To confirm the correlation between the expression of different miRNAs, and in particular miR-17, miR-18, miR-19a, miR19b, miR-20 and miR-92 and the differentiation in granulocytes, cells from NB4 and NB4-LR1 cell lines were cultivated in the presence or absence of ATRA/cAMP as described in example 1. Following an ATRA/cAMP co-treatment, the differentiation of the cells in the NB4-LR1 cell line in granulocytes is restored. Northern blot experiments were carried out according to the protocol described in example 2. […]

NB4 cell line = assay: Granulocytic differentiation, NBT reduction test, NB4 cells; assay type: cell-based, human; conditions: for percentage of cells differentiated during the treatment: 100 μM 8-CPT-cAMP where added, NBT positive cells
Procedure: as §1, §2

miRNAs in NB4-LR1 cells = assay: Northern blot of miRNA expression in NB4-LR1 cells; assay type: cell-based, human; conditions: NB4-LR1 compared with NB4; ATRA
Procedure: as §3
as §4, with “miR-92. […]” for “miR-92.”

miR23a in NB4-LR2 cells = assay: Northern blot of miR23a expression in NB4-LR2 cells; assay type: cell-based, human; conditions: ATRA

For `CC1=C(/C=C/C(C)=C/C=C/C(C)=C/C(=O)O)C(C)(C)CCC1` [ATRA, all-trans retinoic acid], the “differentiation of the cells (in words)” value (NB4-LR1 cell line) was “only the cells in the NB4 cell line differentiate”, the “percentage of cells differentiated during the treatment” value (NB4-LR1 cell line; day 0, 1 μM ATRA) was 0% and the “percentage of cells differentiated during the treatment” value (NB4-LR1 cell line; day 1, 1 μM ATRA) was 0%. For the same molecule, the “percentage of cells differentiated during the treatment” value (NB4-LR1 cell line; day 2, 1 μM ATRA) was 2%, the “percentage of cells differentiated during the treatment” value (NB4-LR1 cell line; day 3, 1 μM ATRA) was 5% and the “percentage of cells differentiated during the treatment” value (NB4-LR1 cell line; day 4, 1 μM ATRA) was 5%. For the same molecule, the “sensitivity of the cells to induced differentiation” value (NB4-LR2 cell line) was “insensitive”, the “expression profile of miR-19b and miR-92, time of maximum” value (miRNAs in NB4 cells; 0 to 4 days) was “maximum of expression on day three of treatment” and the “level of expression of miR-23a” value (miRNAs in NB4 cells; 0 to 4 days) was “increases over time”. For the same molecule, the “level of expression of miR-19b and miR-92 on day 4 of treatment” value (miRNAs in NB4 cells; against non treated cells) was “lower than their level of expression in the non treated cells”, the “differentiation of the cells (in words)” value (NB4 cell line) was “differentiate” and the “percentage of cells differentiated during the treatment” value (NB4 cell line; day 0, 1 μM ATRA) was 0%. The “percentage of cells differentiated during the treatment” value (NB4 cell line; day 1, 1 μM ATRA) was 6%, the “percentage of cells differentiated during the treatment” value (NB4 cell line; day 2, 1 μM ATRA) was 20% and the “percentage of cells differentiated during the treatment” value (NB4 cell line; day 3, 1 μM ATRA) was 43%. The “percentage of cells differentiated during the treatment” value (NB4 cell line; day 4, 1 μM ATRA) was 95%, the “expression profile of miR-17, miR-18, miR-19a, miR19b, miR-20 and miR-92” value (miRNAs in NB4-LR1 cells) was “different expression profile between the NB4 and NB4-LR1 cells” and the “expression of miR23a” value (miR23a in NB4-LR2 cells) was “an increase in the expression of miR23a is not observed”.
